Reference: patent publication US20020137929A1, “1 - (3-heterocyclylphenyl) isothiourea, -isourea, -guanidine and -amidine herbicidal agents” (Intellectual Property Department, BASF Aktiengesellschaft, priority 1998, published 2002)

Columns and labels:
CYPIR (Rice Flatsedge) [1] = assay: Postemergence weed control under flooded paddy conditions; format: in vivo, Cyperus iria; conditions: postemergence weeds, 3-4 weeks after treatment
Procedure, shortened: (§1)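 Weeds 3 to 5 cm tall and rice seedlings at the 1.5 to 2.5 leaf stage were flooded, with water held 1.5 to 3 cm above the soil. Compounds in 50/50 v/v aqueous/acetone went into the flood water at about 0.0313 to 0.500 kg/ha. Visual 0-9 ratings versus control were made 3 to 4 weeks later.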

[2] = tested on: TRZAWR (Wheat, Winter, cv Riband); assay: Preemergence herbicidal evaluation; format: in vivo, Triticum aestivum; conditions: rated 4-5 weeks after treatment
Procedure, shortened: (§2)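 In this greenhouse assay, monocot and dicot seeds are planted in soil and treated prior to emergence with an aqueous acetone spray (about 0.0156-0.500 kg/ha). Plants are assessed visually against control on a 0-9 scale after 4-5 weeks.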

SETVI (Foxtail, Green) [3] = assay: Postemergence herbicidal evaluation; format: in vivo, Setaria viridis; conditions: postemergence
Procedure, shortened: (§3)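 Seedlings grown about two weeks were sprayed at 40 psi with compound dispersed in 50/50 acetone/water plus 0.5% TWEEN 20, at about 0.0156 to 0.500 kg/ha. Plants were kept in the greenhouse and scored 4–5 weeks later on a 0–9 visual scale against untreated controls.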

ZEAMX (Corn, Field) [4] = assay: Postemergence herbicidal evaluation; format: in vivo, Zea mays; conditions: postemergence
Procedure, shortened: as §3

SETVI (Foxtail, Green) [5] = assay: Preemergence herbicidal evaluation; format: in vivo, Setaria viridis; conditions: rated 4-5 weeks after treatment
Procedure, shortened: as §2

[6] = tested on: SAGPY (Arrowhead (Pygmaea)); assay: Postemergence weed control under flooded paddy conditions; format: in vivo, Sagittaria pygmaea; conditions: postemergence weeds, 3-4 weeks after treatment
Procedure, shortened: as §1

CYPIR (Rice Flatsedge) [7] = assay: Preemergence weed control under flooded paddy conditions; format: in vivo, Cyperus iria; conditions: rated 3-4 weeks after treatment
Procedure, shortened: (§4)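 Flooded-pot preemergence screen with silt loam and seeds in the upper 0.5 cm. Dose about 0.0313 to 0.500 kg/ha, delivered into flood water; visual 0-9 score after 3 to 4 weeks.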

ZEAMX (Corn, Field) [8] = assay: Preemergence herbicidal evaluation; format: in vivo, Zea mays; conditions: rated 4-5 weeks after treatment
Procedure, shortened: as §2

ORYSAT (Rice, Tebonnet) = assay: Postemergence herbicidal evaluation; format: in vivo, Oryza sativa, (L.) Tebonnet; conditions: postemergence
Procedure, shortened: as §3

[9] = tested on: ECHORC (Watergrass (Calif.)); assay: Postemergence weed control under flooded paddy conditions; format: in vivo, Echinochloa oryzoides; conditions: postemergence weeds, 3-4 weeks after treatment
Procedure, shortened: as §1

[10] = tested on: ECHORC (Watergrass (Calif.)); assay: Preemergence weed control under flooded paddy conditions; format: in vivo, Echinochloa oryzoides; conditions: rated 3-4 weeks after treatment
Procedure, shortened: as §4

CYPSE (Flatsedge) [11] = assay: as above; format: in vivo, Cyperus serotinus; conditions: rated 3-4 weeks after treatment
Procedure, shortened: as §4

ECHCG (Barnyardgrass) = assay: Preemergence herbicidal evaluation; format: in vivo, Echinochloa crus-galli; conditions: rated 4-5 weeks after treatment
Procedure, shortened: as §2

CYPSE (Flatsedge) [12] = assay: Postemergence weed control under flooded paddy conditions; format: in vivo, Cyperus serotinus; conditions: postemergence weeds, 3-4 weeks after treatment
Procedure, shortened: as §1

Question: CCOC(=O)CN1C(=O)C(=C2CCCC2)SC1=Nc1cc(-n2c(=O)cc(C(F)(F)F)n(C)c2=O)c(F)cc1Cl [Compound 18, Ethyl 2-{{2-chloro-5-[3,6-dihydro-3-methyl-2,6-dioxo-4-(trifluoromethyl)-1(2H)-pyrimidinyl]-4-fluorophenyl}imino}-5-cyclopentylidene-4-oxo-3-thiazolidineacetate] was tested. Which “Herbicidal rating CYPIR” value (CYPIR (Rice Flatsedge) [1]; rate 0.1160 kg/ha) did it give?
Answer: 0.0

Question: And the “Herbicidal rating CYPIR” value (CYPIR (Rice Flatsedge) [1]; rate 0.2310 kg/ha)?
Answer: 0.0

Question: What about the “Herbicidal rating CYPIR” value (CYPIR (Rice Flatsedge) [1]; rate 0.4630 kg/ha) of the same molecule?
Answer: 0.0

Question: And the “TRZAWR preemergence herbicidal rating” value ([2]; rate 0.1250 kg/ha)?
Answer: 0.0

Question: And the “TRZAWR preemergence herbicidal rating” value ([2]; rate 0.2500 kg/ha)?
Answer: 0.0

Question: What about the SETVI herbicidal rating (SETVI (Foxtail, Green) [3]; rate 0.0158 kg/ha) of the same molecule?
Answer: 0.0

Question: What about the SETVI herbicidal rating (SETVI (Foxtail, Green) [3]; rate 0.0315 kg/ha) of the same molecule?
Answer: 1.0

Question: And the SETVI herbicidal rating (SETVI (Foxtail, Green) [3]; rate 0.0630 kg/ha)?
Answer: 6.0

Question: And the ZEAMX herbicidal rating (ZEAMX (Corn, Field) [4]; rate 0.0158 kg/ha)?
Answer: 4.0

Question: And the ZEAMX herbicidal rating (ZEAMX (Corn, Field) [4]; rate 0.0315 kg/ha)?
Answer: 4.5

Question: And the ZEAMX herbicidal rating (ZEAMX (Corn, Field) [4]; rate 0.0630 kg/ha)?
Answer: 4.0

Question: What about the “SETVI preemergence herbicidal rating” value (SETVI (Foxtail, Green) [5]; rate 0.1250 kg/ha) of the same molecule?
Answer: 0.0

Question: What about the “SETVI preemergence herbicidal rating” value (SETVI (Foxtail, Green) [5]; rate 0.2500 kg/ha) of the same molecule?
Answer: 2.0

Question: And the “Herbicidal rating SAGPY” value ([6]; rate 0.1160 kg/ha)?
Answer: 0.0

Question: What about the “Herbicidal rating SAGPY” value ([6]; rate 0.2310 kg/ha) of the same molecule?
Answer: 0.0

Question: What about the “Herbicidal rating SAGPY” value ([6]; rate 0.4630 kg/ha) of the same molecule?
Answer: 6.0

Question: What about the “Herbicidal rating CYPIR” value (CYPIR (Rice Flatsedge) [7]; 0.1160 kg/ha) of the same molecule?
Answer: 0.0

Question: What about the “Herbicidal rating CYPIR” value (CYPIR (Rice Flatsedge) [7]; 0.2310 kg/ha) of the same molecule?
Answer: 0.0

Question: And the “Herbicidal rating CYPIR” value (CYPIR (Rice Flatsedge) [7]; 0.4630 kg/ha)?
Answer: 0.0

Question: And the “ZEAMX preemergence herbicidal rating” value (ZEAMX (Corn, Field) [8]; rate 0.1250 kg/ha)?
Answer: 0.0

Question: What about the “ZEAMX preemergence herbicidal rating” value (ZEAMX (Corn, Field) [8]; rate 0.2500 kg/ha) of the same molecule?
Answer: 0.0

Question: What about the ORYSAT herbicidal rating (ORYSAT (Rice, Tebonnet); rate 0.0158 kg/ha) of the same molecule?
Answer: 2.0

Question: What about the ORYSAT herbicidal rating (ORYSAT (Rice, Tebonnet); rate 0.0315 kg/ha) of the same molecule?
Answer: 1.5

Question: And the ORYSAT herbicidal rating (ORYSAT (Rice, Tebonnet); rate 0.0630 kg/ha)?
Answer: 1.5

Question: And the “Herbicidal rating ECHORC” value ([9]; rate 0.1160 kg/ha)?
Answer: 7.0

Question: What about the “Herbicidal rating ECHORC” value ([9]; rate 0.2310 kg/ha) of the same molecule?
Answer: 7.0

Question: What about the “Herbicidal rating ECHORC” value ([9]; rate 0.4630 kg/ha) of the same molecule?
Answer: 7.0

Question: And the “Herbicidal rating ECHORC” value ([10]; 0.1160 kg/ha)?
Answer: 7.0

Question: And the “Herbicidal rating ECHORC” value ([10]; 0.2310 kg/ha)?
Answer: 7.0

Question: What about the “Herbicidal rating ECHORC” value ([10]; 0.4630 kg/ha) of the same molecule?
Answer: 7.0

Question: What about the “Herbicidal rating CYPSE” value (CYPSE (Flatsedge) [11]; 0.1160 kg/ha) of the same molecule?
Answer: 0.0

Question: And the “Herbicidal rating CYPSE” value (CYPSE (Flatsedge) [11]; 0.2310 kg/ha)?
Answer: 0.0

Question: What about the “Herbicidal rating CYPSE” value (CYPSE (Flatsedge) [11]; 0.4630 kg/ha) of the same molecule?
Answer: 4.0

Question: What about the “ECHCG preemergence herbicidal rating” value (ECHCG (Barnyardgrass); rate 0.1250 kg/ha) of the same molecule?
Answer: 0.0

Question: And the “ECHCG preemergence herbicidal rating” value (ECHCG (Barnyardgrass); rate 0.2500 kg/ha)?
Answer: 0.0

Question: And the “Herbicidal rating CYPSE” value (CYPSE (Flatsedge) [12]; rate 0.1160 kg/ha)?
Answer: 0.0

Question: What about the “Herbicidal rating CYPSE” value (CYPSE (Flatsedge) [12]; rate 0.2310 kg/ha) of the same molecule?
Answer: 0.0

Question: And the “Herbicidal rating CYPSE” value (CYPSE (Flatsedge) [12]; rate 0.4630 kg/ha)?
Answer: 4.0

Question: What does the source list for CCOC(=O)CN1C(=O)C(=C(C)C)S/C1=N/c1cc(-n2c(=O)cc(C(F)(F)F)n(C)c2=O)c(F)cc1Cl [Compound 20, Ethyl 2-{{2-chloro-5-[3,6-dihydro-3-methyl-2,6-dioxo-4-(trifluoromethyl)-1(2H)-pyrimidinyl]-4-fluorophenyl}imino}-5-isopropylidene-4-oxo-3-thiazolidineacetate]?
Answer: Herbicidal rating CYPIR (CYPIR (Rice Flatsedge) [1]; rate 0.1160 kg/ha): 0.0; Herbicidal rating CYPIR (CYPIR (Rice Flatsedge) [1]; rate 0.2310 kg/ha): 0.0; Herbicidal rating CYPIR (CYPIR (Rice Flatsedge) [1]; rate 0.4630 kg/ha): 0.0; TRZAWR preemergence herbicidal rating ([2]; rate 0.0625 kg/ha): 0.0; TRZAWR preemergence herbicidal rating ([2]; rate 0.1250 kg/ha): 0.0; TRZAWR preemergence herbicidal rating ([2]; rate 0.2500 kg/ha): 0.0; SETVI herbicidal rating (SETVI (Foxtail, Green) [3]; rate 0.0158 kg/ha): 1.0; SETVI herbicidal rating (SETVI (Foxtail, Green) [3]; rate 0.0315 kg/ha): 1.0; SETVI herbicidal rating (SETVI (Foxtail, Green) [3]; rate 0.0630 kg/ha): 4.0; ZEAMX herbicidal rating (ZEAMX (Corn, Field) [4]; rate 0.0158 kg/ha): 4.5; ZEAMX herbicidal rating (ZEAMX (Corn, Field) [4]; rate 0.0315 kg/ha): 5.0; ZEAMX herbicidal rating (ZEAMX (Corn, Field) [4]; rate 0.0630 kg/ha): 5.5; SETVI preemergence herbicidal rating (SETVI (Foxtail, Green) [5]; rate 0.0625 kg/ha): 0.0; SETVI preemergence herbicidal rating (SETVI (Foxtail, Green) [5]; rate 0.1250 kg/ha): 0.0; SETVI preemergence herbicidal rating (SETVI (Foxtail, Green) [5]; rate 0.2500 kg/ha): 7.0; Herbicidal rating SAGPY ([6]; rate 0.1160 kg/ha): 0.0; Herbicidal rating SAGPY ([6]; rate 0.2310 kg/ha): 0.0; Herbicidal rating SAGPY ([6]; rate 0.4630 kg/ha): 3.0; Herbicidal rating CYPIR (CYPIR (Rice Flatsedge) [7]; 0.1160 kg/ha): 0.0; Herbicidal rating CYPIR (CYPIR (Rice Flatsedge) [7]; 0.2310 kg/ha): 0.0; Herbicidal rating CYPIR (CYPIR (Rice Flatsedge) [7]; 0.4630 kg/ha): 0.0; ZEAMX preemergence herbicidal rating (ZEAMX (Corn, Field) [8]; rate 0.0625 kg/ha): 0.0; ZEAMX preemergence herbicidal rating (ZEAMX (Corn, Field) [8]; rate 0.1250 kg/ha): 0.0; ZEAMX preemergence herbicidal rating (ZEAMX (Corn, Field) [8]; rate 0.2500 kg/ha): 0.0; ORYSAT herbicidal rating (ORYSAT (Rice, Tebonnet); rate 0.0158 kg/ha): 2.0; ORYSAT herbicidal rating (ORYSAT (Rice, Tebonnet); rate 0.0315 kg/ha): 2.0; ORYSAT herbicidal rating (ORYSAT (Rice, Tebonnet); rate 0.0630 kg/ha): 3.0; Herbicidal rating ECHORC ([9]; rate 0.1160 kg/ha): 7.0; Herbicidal rating ECHORC ([9]; rate 0.2310 kg/ha): 7.0; Herbicidal rating ECHORC ([9]; rate 0.4630 kg/ha): 7.0; Herbicidal rating ECHORC ([10]; 0.1160 kg/ha): 7.0; Herbicidal rating ECHORC ([10]; 0.2310 kg/ha): 7.0; Herbicidal rating ECHORC ([10]; 0.4630 kg/ha): 7.0; Herbicidal rating CYPSE (CYPSE (Flatsedge) [11]; 0.1160 kg/ha): 5.0; Herbicidal rating CYPSE (CYPSE (Flatsedge) [11]; 0.2310 kg/ha): 5.0; Herbicidal rating CYPSE (CYPSE (Flatsedge) [11]; 0.4630 kg/ha): 5.0; ECHCG preemergence herbicidal rating (ECHCG (Barnyardgrass); rate 0.0625 kg/ha): 0.0; ECHCG preemergence herbicidal rating (ECHCG (Barnyardgrass); rate 0.1250 kg/ha): 0.0; ECHCG preemergence herbicidal rating (ECHCG (Barnyardgrass); rate 0.2500 kg/ha): 0.0; Herbicidal rating CYPSE (CYPSE (Flatsedge) [12]; rate 0.1160 kg/ha): 5.0; Herbicidal rating CYPSE (CYPSE (Flatsedge) [12]; rate 0.2310 kg/ha): 5.0; Herbicidal rating CYPSE (CYPSE (Flatsedge) [12]; rate 0.4630 kg/ha): 5.0
